Patent US10329249B1, “Sulindac derivatives” (KING SAUD UNIVERSITY, priority 2018, dated 2019)
Marks after values point to notes of the source that are not given here.

Legend:
[1] = system: non-protein sulfhydryls (NP-SH); test: Non-protein sulfhydryls in stomach tissue; format: in vivo, rats; conditions: Sulindac 100, Compound 8 150, mean ±SEM
Protocol: […] non-protein sulfhydryls (NP-SH) were measured by homogenizing rat stomach tissues in ice cold 0.02 mmol/L ethylenediaminetetraacetic acid (EDTA). Aliquots of 5 mL of the homogenates were mixed in 15 mL test tube with 4 mL of distilled water and 1 mL of 50% trichloroacetic acid (TCA). The test tubes were shaken intermittently for 10 min. and centrifuged at 3000 rpm for 10 min. A total of 2 mL supernatant was mixed with 4 mL of […] tris buffer (pH 8.9). A total of 0.1 mL of 5,5-dithiobis(2-nitrobenzoic acid) ([…]) was added, and the sample was shaken. The absorbance was measured within 5 min. of addition of DTNB at 412 nm and compared to a reagent blank.

[2] = system: acute nociception (tail flick); test: Analgesic study by tail flick method; format: in vivo, mice; conditions: Sulindac 100 mg/kg oral; for % Inhibition 30 min / Reaction Time 30 min / % Inhibition 60 min / Reaction Time 60 min / % Inhibition 120 min / Reaction Time 120 min: Compound 8 150 mg/kg; for Reaction Time 30 min / Reaction Time 60 min / Reaction Time 120 min / Reaction Time, Pre-drug: mean ±SEM; for Reaction Time, Pre-drug: pre-drug baseline, groups Compound 8 150 mg/kg
Protocol: (§1) All animal experiments used healthy male albino rats (200 g-220 g) and mice. The animals were kept in standard plastic animal cages in groups of six animals each with a 12 hour light and dark cycle. The animals were acclimatized to laboratory conditions for a week prior to the experiments.
In an analgesic study by tail flick method, acute nociception was assessed using a tail flick apparatus (Tail Flick model DS 20 Sorrel Apelex, France). Briefly, each animal was placed in a restrainer 2 min. before treatment and baseline reaction time was measured by focusing an intensity controlled beam of light on the distal one-third portion of the animal's tail. […] A 10 sec cut off time was used in order to prevent tissue damage.

[3] = system: yeast-induced hyperthermia; test: Anti-pyretic study, brewer's yeast-induced hyperthermia; format: in vivo, mice; conditions: mean ±SEM; for Rectal temperature 30 min: 30 min after drug; for Rectal temperature 30 min / Rectal temperature 60 min / Rectal temperature 120 min: Compound 8 150 mg/kg; for Rectal temperature 30 min / Rectal temperature 60 min / Rectal temperature 120 min / Rectal temperature, Control: Sulindac 100 mg/kg; for Rectal temperature 60 min: 60 min after drug; for Rectal temperature 120 min: 120 min after drug; for Rectal temperature, Control: after yeast injection, pre-drug, groups Compound 8 150 mg/kg; for Rectal temperature, Normal: before yeast, groups later given Compound 8 150 mg/kg or Sulindac 100 mg/kg
Protocol: as §1
In an anti-pyretic study, hyperthermia was induced in mice by subcutaneous injection of 20 mL/kg of a 20% aqueous suspension of brewer's yeast in the back below of nape of the neck. The animals were fasted for 24 hours. Water was made available. Control rectal temperature was recorded 24 hours after the yeast injection to determine the pyretic response to yeast. Rectal temperature recordings were then taken 1 hour prior to drug administration in the fevered animals to serve as a pre drug control. […]

[4] = system: carrageenan-induced paw edema; test: Carrageenan induced paw edema; format: in vivo, rats; conditions: Sulindac 100 mg/kg oral; for Paw volume before carrageenan: baseline, groups Compound 8 150 mg/kg, in mL (unit assumed)
Protocol: as §1
In a Carrageenan induced paw edema in rats study, Carrageenan sodium salt (0.05 mL of 1% BDH) was injected into the right hind foot of each rat (male or female, 200-220 g) under the plantar aponeurosis. The test group of was treated orally with a Sulindac derivative compound 1 hour before carrageenan injection. At the same time, the control group was given 5 mL/kg of normal saline and the reference group was given 100 mg/kg of an aqueous solution of sulindac. […] Inhibitory activity was calculated using the following:
[formula] where “B” is the mean paw volume of control rats after carrageenan injection, “Y” is the mean paw volume of control rats before the carrageenan injection, “X” is the mean paw volume of treated rats before carrageenan injection, and “A” is the mean paw volume of treated rats after the carrageenan injection.

[5] = system: ethanol-induced ulcer; test: Ulcer study using 80% ethanol (gastric mucosal damage score); format: in vivo, rats; conditions: sulindac 100 mg/kg; for Ulcer Index: mean ±SEM; for % Inhibition (ulcer index): Cmpd 8 150 mg/kg, versus 80% EtOH alone
Protocol: as §1
In an ulcer study of sulindac derivatives using 80% ethanol, the ethanol-induced ulcer model was used to study gastro-protective activity of sulindac derivative Compound 8. Rats were grouped into five groups (n=6). Group I received 80% ethanol only and served as an ulcer control. Group II received 80% ethanol and sulindac (100 mg/kg) orally. […] Animals in Group IV received sulindac (100 mg/kg body weight) without any ethanol. […] Animals of all Groups were sacrificed 1 hour later under anesthesia and their stomachs were quickly removed for further studies. The stomach was opened along the greater curvature, washed with distilled water and cleaned gently by dipping in saline. The mucosal damage was assessed according to the following scoring system: redness=0.5, spot ulcer=1.0, hemorrhagic streaks=1.5, ulcer>3 but<5=2.0, ulcers>5=3.0. The mean score of each treated group minus the mean score of the control group was taken as the severity index of gastric mucosal damage. Results were calculated by ANOVA followed by Dunnett's multiple comparison test and are summarized in Table 7, represent mean±SEM; ***=p<0.001 (n=6).

[6] = system: Total Protein (TP); test: Total protein in gastric juice; format: in vivo, rats; conditions: Sulindac 100, Compound 8 150, mean ±SEM
Protocol: Total Protein (TP), or dissolved proteins in gastric juice, was estimated through alcohol precipitation. 90% alcohol was added to gastric juice at a 9:1 ratio, and then 0.1 ml of the alcoholic precipitate of gastric juice was dissolved in 1 ml of 0.1 N NaOH, and 0.05 ml of this suspension was placed in a test tube. 4 ml of an alkaline mixture was then added to the test tube and incubated at room temperature for 10 minutes. 0.4 ml of a phenol reagent was then added, and after a further 10 minutes, once color had developed, a reading was taken against a blank containing distilled water at 610 nm on a spectrophotometer. TP content was then calculated from a standard curve prepared with bovine albumin and expressed as g/L of gastric juice. Results were calculated by ANOVA followed by Dunnett's multiple comparison test and are summarized in Table 9, represent mean±SEM; **=p<0.01; ***=p<0.001 (n=6).

[7] = system: hot plate nociception; test: Analgesic activity by hot plate method; format: in vivo, mice; conditions: Sulindac 100 mg/kg oral; for % Inhibition 30 min / Reaction Time 30 min / % Inhibition 60 min / Reaction Time 60 min / % Inhibition 120 min / Reaction Time 120 min: Compound 8 150 mg/kg; for Reaction Time 30 min / Reaction Time 60 min / Reaction Time 120 min / Reaction Time, Pre-drug: mean ±SEM; for Reaction Time, Pre-drug: pre-drug baseline, groups Compound 8 150 mg/kg
Protocol: as §1
In an analgesic activity by hot plate method study, animals were dropped gently on a hot plate maintained at […]. Reaction time was recorded as the interval extending from the instant the animal reached the hot plate until the moment the animal licked its forefeet or jumped off. […]

[8] = Compound 8 150 mg/kg, mean ±SEM
[9] = 5 hours, Compound 8 150 mg/kg, mean ±SEM
[10] = with 80% EtOH, Cmpd 8 150 mg/kg oral, sacrificed 1 hour later

| SMILES | NP-SH ([1]; drug alone, no ethanol) | NP-SH ([1]; with 80% Ethanol 1 mL) | % Inhibition 30 min [2] | Reaction Time 30 min [2] | % Inhibition 60 min [2] | Reaction Time 60 min [2] | % Inhibition 120 min [2] | Reaction Time 120 min [2] | Reaction Time, Pre-drug [2] | Rectal temperature 30 min [3] | Rectal temperature 60 min [3] | Rectal temperature 120 min [3] | Rectal temperature, Control [3] | Rectal temperature, Normal [3] | % Inhibition of paw edema after 3 hours ([4]; Compound 8 150 mg/kg) | Increased paw volume after 3 hours, Mean [4, 8] | Increased paw volume after 3 hours, Net [4, 8] | % Inhibition of paw edema after 5 hours ([4]; 5 hours, Compound 8 150 mg/kg) | Increased paw volume after 5 hours, Mean [4, 9] | Paw volume before carrageenan ([4]; mean ±SEM) | further results |
| --- | --- | --- | --- | --- | --- | --- | --- | --- | --- | --- | --- | --- | --- | --- | --- | --- | --- | --- | --- | --- | --- |
| CC1=C(CC(=O)N/N=C\c2ccc(N(C)C)cc2)c2cc(F)ccc2/C1=C\c1ccc([S+](C)[O-])cc1 (stereo not shown) [Compound 8] | 7.52 ± 0.31 nmol/g | 6.62 ± 0.26 nmol/g | 3.33% | 4.83 ± 0.30 s | 46.66% | 7.33 ± 0.42 s | 63.33% | 7.16 ± 0.30 s | 5.00 ± 0.36 s | 38.15 ± 0.10 °C | 37.83 ± 0.15 °C | 37.33 ± 0.12 °C | 38.38 ± 0.19 °C | 35.16 ± 0.10 °C | 50.52% | 1.34 ± 0.02 | 0.31 ± 0.03 | 50.54% | 1.33 ± 0.01 | 1.02 ± 0.02 | Increased paw volume after 5 hours, Net [4, 9]: 0.30 ± 0.02; Ulcer Index [5, 10]: 4.33 ± 0.4***; % Inhibition (ulcer index) ([5]; with 80% EtOH): 40.90%; TP ([6]; drug alone, no ethanol): 114.57 ± 1.89*** g/L; TP ([6]; with 80% Ethanol 1 mL): 100.99 ± 2.42*** g/L; % Inhibition 30 min [7]: 15%; Reaction Time 30 min [7]: 7.66 ± 0.42 s; % Inhibition 60 min [7]: 47.50%; Reaction Time 60 min [7]: 9.83 ± 0.30 s; % Inhibition 120 min [7]: 67.50%; Reaction Time 120 min [7]: 11.16 ± 0.30 s; Reaction Time, Pre-drug [7]: 6.66 ± 0.33 s |
| CC1=C(CC(=O)O)c2cc(F)ccc2/C1=C\c1ccc([S+](C)[O-])cc1 (stereo not shown) [Sulindac] | 7.00 ± 0.032 nmol/g | 5.08 ± 0.28 nmol/g | 13.79% | 5.50 ± 0.34 s | 82.75% | 8.83 ± 0.79 s | 127.58% | 11.00 ± 0.57 s | 4.83 ± 0.40 s | 37.46 ± 0.14 °C | 37.16 ± 0.09 °C | 36.23 ± 0.08 °C | 38.21 ± 0.31 °C | 35.21 ± 0.11 °C | 65.18% | 1.26 ± 0.03 | 0.22 ± 0.01 | 65.02% | 1.25 ± 0.03 | 1.03 ± 0.03 | Ulcer Index ([5]; drug alone, without ethanol, Compound 8 150 mg/kg oral): 1.33 ± 0.49; Ulcer Index [5, 10]: 6.83 ± 0.40; % Inhibition (ulcer index) ([5]; with 80% EtOH): 6.81%; TP ([6]; drug alone, no ethanol): 105.78 ± 1.43*** g/L; TP ([6]; with 80% Ethanol 1 mL): 93.81 ± 3.05*** g/L; % Inhibition 30 min [7]: 41.30%; Reaction Time 30 min [7]: 10.83 ± 0.47 s; % Inhibition 60 min [7]: 54.34%; Reaction Time 60 min [7]: 11.83 ± 0.47 s; % Inhibition 120 min [7]: 86.95%; Reaction Time 120 min [7]: 14.33 ± 0.42 s; Reaction Time, Pre-drug [7]: 7.66 ± 0.33 s |
